US20230279025A1, “KRAS G12D INHIBITORS” (Mirati Therapeutics, Inc., priority 2020, published 2023)
pIC50: −log10 of the molar value.

The compounds below were run against KRas G12D (Homo sapiens (Human), UniProt P01116, G12D) (assay: KRas G12D Binding Assay (TR-FRET displacement of Cy5 labelled tracer)). Settings: GDP-loaded KRAS G12D (amino acids 1:169), 60 minute incubation at 22° C.
Chain of KRas G12D (P01116 other isoform, or with tags, fused parts or gaps G12D): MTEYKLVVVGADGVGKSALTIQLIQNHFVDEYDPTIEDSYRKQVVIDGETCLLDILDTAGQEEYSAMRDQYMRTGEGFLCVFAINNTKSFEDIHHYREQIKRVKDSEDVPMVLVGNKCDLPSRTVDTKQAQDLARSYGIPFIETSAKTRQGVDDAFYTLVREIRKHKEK
Description: After a 60 minute incubation at 22° C., the reaction was measured using a PerkinElmer EnVision multimode plate reader via TR-FRET dual wavelength detection, and the percent of control (POC) calculated using a ratiometric emission factor. […] The POC values were fit to a 4-parameter logistic curve and the IC50 value was determined as the concentration where the curve crosses 50 POC.
ND stands for “not determined.”
In the case of `Fc1c(-c2ccccc2Cl)ncc2c(N3C[C@H]4CC[C@@H](C3)N4)nc(OCC34CCCN3CCC4)nc12` [Example 310, 4-((1R,5S)-3,8-diazabicyclo[3.2.1]octan-3-yl)-7-(2-chlorophenyl)-8-fluoro-2-((hexahydro-1H-pyrrolizin-7a-yl)methoxy)pyrido[4,3-d]pyrimidine], the pIC50 was 6.25. Work on `C[C@H]1C[C@H]1c1ccccc1-c1ncc2c(N3C[C@H]4CC[C@@H](C3)N4)nc(OCC34CCCN3CCC4)nc2c1F` [Example 287, 4-((1R,5S)-3,8-diazabicyclo[3.2.1]octan-3-yl)-8-fluoro-2-((hexahydro-1H-pyrrolizin-7a-yl)methoxy)-7-(2-((1R,2S)-2-methylcyclopropyl)phenyl)pyrido[4,3-d]pyrimidine] yielded a pIC50 of 7.04. Work on `Fc1c(-c2cccc3cccc(Cl)c23)ncc2c(N3C[C@H]4CC[C@@H](C3)N4)nc(OC[C@]34CCCN3[C@@H](Cn3cccn3)CC4)nc12` [Example 418, 2-(((3R,7aR)-3-((1H-pyrazol-1-yl)methyl)hexahydro-1H-pyrrolizin-7a-yl)methoxy)-4-((1R,5S)-3,8-diazabicyclo[3.2.1]octan-3-yl)-7-(8-chloronaphthalen-1-yl)-8-fluoropyrido[4,3-d]pyrimidine] yielded a pIC50 of 8.12. `CCc1cccc2cccc(-c3ncc4c(N5C[C@H]6CC[C@@H](C5)N6)nc(OCC56CCCN5CCC6)nc4c3F)c12` [Example 187, 4-((1R,5S)-3,8-diazabicyclo[3.2.1]octan-3-yl)-7-(8-ethylnaphthalen-1-yl)-8-fluoro-2-((tetrahydro-1H-pyrrolizin-7a(5H)-yl)methoxy)pyrido[4,3-d]pyrimidine] showed a pIC50 of 8.77. Compound `Fc1c(-c2cccc3c2OC(F)(F)O3)ncc2c(N3C[C@H]4CC[C@@H](C3)N4)nc(OCC34CCCN3CCC4)nc12` [Example 196, 4-((1R,5S)-3,8-diazabicyclo[3.2.1]octan-3-yl)-7-(2,2-difluorobenzo[d][1,3]dioxol-4-yl)-8-fluoro-2-((tetrahydro-1H-pyrrolizin-7a(5H)-yl)methoxy)pyrido[4,3-d]pyrimidine] has a pIC50 of 6.33. Compound `CNC(=O)OC[C@H]1CC[C@@]2(COc3nc(N4CC5CCC(C4)N5)c4cnc(-c5cccc6cccc(Cl)c56)c(F)c4n3)CCCN12` [Example 408, (7a-(((4-(3,8-diazabicyclo[3.2.1]octan-3-yl)-7-(8-chloronaphthalen-1-yl)-8-fluoropyrido[4,3-d]pyrimidin-2-yl)oxy)methyl)hexahydro-1H-pyrrolizin-3-yl)methyl methylcarbamate] has a pIC50 of 8.51. With `CC(C)c1c(F)cccc1-c1ncc2c(N3C[C@H]4CC[C@@H](C3)N4)nc(OCC34CCCN3CCC4)nc2c1F` [Example 299, 4-((1R,5S)-3,8-diazabicyclo[3.2.1]octan-3-yl)-8-fluoro-7-(3-fluoro-2-isopropylphenyl)-2-((hexahydro-1H-pyrrolizin-7a-yl)methoxy)pyrido[4,3-d]pyrimidine] the pIC50 was 6.88. In the case of `CCc1c(F)ccc2cc(O)cc(-c3ncc4c(N5C[C@H]6CC[C@@H](C5)N6)nc(OC[C@]56CCCN5[C@@H](COC(=O)N(C)C)CC6)nc4c3F)c12` [Example 441, ((3R,7aR)-7a-(((4-((1R,5S)-3,8-diazabicyclo[3.2.1]octan-3-yl)-7-(8-ethyl-7-fluoro-3-hydroxynaphthalen-1-yl)-8-fluoropyrido[4,3-d]pyrimidin-2-yl)oxy)methyl)hexahydro-1H-pyrrolizin-3-yl)methyl dimethylcarbamate], the pIC50 was 9.30. For `Fc1cccc(-c2ncc3c(N4C[C@H]5CC[C@@H](C4)N5)nc(OCC45CCCN4CCC5)nc3c2F)c1C(F)(F)F` [Example 292, 4-((1R,5S)-3,8-diazabicyclo[3.2.1]octan-3-yl)-8-fluoro-7-(3-fluoro-2-(trifluoromethyl)phenyl)-2-((tetrahydro-1H-pyrrolizin-7a(5H)-yl)methoxy)pyrido[4,3-d]pyrimidine], the pIC50 was 7.88. Work on `CN1CC[C@H](COc2nc(N3C[C@H]4CC[C@@H](C3)N4)c3cnc(-c4cccc5cccc(Cl)c45)c(F)c3n2)C1` [Example 357, 4-((1R,5S)-3,8-diazabicyclo[3.2.1]octan-3-yl)-7-(8-chloronaphthalen-1-yl)-8-fluoro-2-(((S)-1-methylpyrrolidin-3-yl)methoxy)pyrido[4,3-d]pyrimidine] yielded a pIC50 of 6.36. `CN1C[C@H](NC(=O)c2ccccc2C=O)C[C@H]1COc1nc(N2C[C@H]3CC[C@@H](C2)N3)c2cnc(-c3cccc4cccc(Cl)c34)c(F)c2n1` [Example 355, N-((3R,5S)-5-(((4-((1R,5S)-3,8-diazabicyclo[3.2.1]octan-3-yl)-7-(8-chloronaphthalen-1-yl)-8-fluoropyrido[4,3-d]pyrimidin-2-yl)oxy)methyl)-1-methylpyrrolidin-3-yl)-2-formylbenzamide] was tested, and the pIC50 was 6.06. `CC(C)c1c(Cl)cccc1-c1ncc2c(N3C[C@H]4CC[C@@H](C3)N4)nc(OCC34CCCN3CCC4)nc2c1F` [Example 298, 4-((1R,5S)-3,8-diazabicyclo[3.2.1]octan-3-yl)-7-(3-chloro-2-isopropylphenyl)-8-fluoro-2-((hexahydro-1H-pyrrolizin-7a-yl)methoxy)pyrido[4,3-d]pyrimidine] was tested, and the pIC50 was 8.08. In the case of `O=C(OC[C@H]1CC[C@@]2(COc3nc(N4CC5CCC(C4)N5)c4cnc(-c5cccc6cccc(Cl)c56)c(F)c4n3)CCCN12)N1CCCCC1` [Example 444, ((3R,7aR)-7a-(((4-(3,8-diazabicyclo[3.2.1]octan-3-yl)-7-(8-chloronaphthalen-1-yl)-8-fluoropyrido[4,3-d]pyrimidin-2-yl)oxy)methyl)hexahydro-1H-pyrrolizin-3-yl)methyl piperidine-1-carboxylate], the pIC50 was 8.26. For `CCC(C)c1ccccc1-c1ncc2c(N3C[C@H]4CC[C@@H](C3)N4)nc(OCC34CCCN3CCC4)nc2c1F` (stereo partly drawn) [Example 300, 4-((1R,5S)-3,8-diazabicyclo[3.2.1]octan-3-yl)-7-(2-(sec-butyl)phenyl)-8-fluoro-2-((hexahydro-1H-pyrrolizin-7a-yl)methoxy)pyrido[4,3-d]pyrimidine], the pIC50 was 6.11. Work on `Oc1cc(-c2ncc3c(N4C[C@H]5CC[C@@H](C4)N5)nc(OCCC(F)(F)F)nc3c2F)c2c(Cl)cccc2c1` [Example 393, 4-(4-((1R,5S)-3,8-diazabicyclo[3.2.1]octan-3-yl)-8-fluoro-2-(3,3,3-trifluoropropoxy)pyrido[4,3-d]pyrimidin-7-yl)-5-chloronaphthalen-2-ol] yielded a pIC50 of 7.12. Work on `C#Cc1cccc2cccc(-c3ncc4c(N5C[C@H]6CC[C@@H](C5)N6)nc(OC[C@]56CCCN5C[C@@H](F)C6)nc4c3F)c12` [Example 205, 4-((1R,5S)-3,8-diazabicyclo[3.2.1]octan-3-yl)-7-(8-ethynylnaphthalen-1-yl)-8-fluoro-2-(((2S,7aR)-2-fluorotetrahydro-1H-pyrrolizin-7a(5H)-yl)methoxy)pyrido[4,3-d]pyrimidine] yielded a pIC50 of 8.92. With `C#Cc1c(F)ccc2cc(O)cc(-c3ncc4c(N5C[C@H]6CC[C@@H](C5)N6)nc(OCC56CCCN5CCC6)nc4c3F)c12` [Example 232, 4-(4-((1R,5S)-3,8-diazabicyclo[3.2.1]octan-3-yl)-8-fluoro-2-((tetrahydro-1H-pyrrolizin-7a(5H)-yl)methoxy)pyrido[4,3-d]pyrimidin-7-yl)-5-ethynyl-6-fluoronaphthalen-2-ol] the pIC50 was 9.22.
